Experimental data as given in the NIST ThermoML archive (doi:10.1016/j.jct.2019.02.012).
Numbers after ± are expanded uncertainties.

Assay: mn = molality of the nth substance listed, in mol/kg
Conditions: 100 kPa, Liquid, Pycnometric method

SMILES: O=C(O)[C@@H]1CCCN1 [L-proline] + O
- mass density (298.15 K, m1 = 0.025): 997.86 ± 0.47 kg/m3
- mass density (298.15 K, m1 = 0.05): 998.65 ± 0.47 kg/m3
- mass density (298.15 K, m1 = 0.075): 999.43 ± 0.47 kg/m3
- mass density (298.15 K, m1 = 0.1): 1000.2 ± 0.47 kg/m3
- mass density (298.15 K, m1 = 0.125): 1000.96 ± 0.48 kg/m3
- mass density (303.15 K, m1 = 0.025): 996.45 ± 0.48 kg/m3
- mass density (303.15 K, m1 = 0.05): 997.24 ± 0.48 kg/m3
- mass density (303.15 K, m1 = 0.075): 998.01 ± 0.48 kg/m3
- mass density (303.15 K, m1 = 0.1): 998.77 ± 0.49 kg/m3
- mass density (303.15 K, m1 = 0.125): 999.52 ± 0.49 kg/m3
- mass density (308.15 K, m1 = 0.025): 994.82 ± 0.49 kg/m3
- mass density (308.15 K, m1 = 0.05): 995.6 ± 0.49 kg/m3
- mass density (308.15 K, m1 = 0.075): 996.37 ± 0.5 kg/m3
- mass density (308.15 K, m1 = 0.1): 997.12 ± 0.5 kg/m3
- mass density (308.15 K, m1 = 0.125): 997.86 ± 0.5 kg/m3
- mass density (313.15 K, m1 = 0.025): 992.99 ± 0.5 kg/m3
- mass density (313.15 K, m1 = 0.05): 993.77 ± 0.5 kg/m3
- mass density (313.15 K, m1 = 0.075): 994.53 ± 0.51 kg/m3
- mass density (313.15 K, m1 = 0.1): 995.28 ± 0.51 kg/m3
- mass density (313.15 K, m1 = 0.125): 996.01 ± 0.52 kg/m3
- mass density (318.15 K, m1 = 0.025): 991.02 ± 0.51 kg/m3
- mass density (318.15 K, m1 = 0.05): 991.79 ± 0.51 kg/m3
- mass density (318.15 K, m1 = 0.075): 992.55 ± 0.51 kg/m3
- mass density (318.15 K, m1 = 0.1): 993.29 ± 0.52 kg/m3
- mass density (318.15 K, m1 = 0.125): 994.02 ± 0.53 kg/m3

SMILES: CN(C)C(=N)NC(=N)N.Cl [N,N-dimethylimidodicarbonimidic diamide hydrochloride] + O
- mass density (298.15 K, m1 = 0.05): 998.89 ± 0.48 kg/m3
- mass density (298.15 K, m1 = 0.1): 1000.77 ± 0.48 kg/m3
- mass density (298.15 K, m1 = 0.15): 1002.66 ± 0.48 kg/m3
- mass density (298.15 K, m1 = 0.2): 1004.6 ± 0.48 kg/m3
- mass density (303.15 K, m1 = 0.05): 997.46 ± 0.49 kg/m3
- mass density (303.15 K, m1 = 0.1): 999.32 ± 0.49 kg/m3
- mass density (303.15 K, m1 = 0.15): 1001.21 ± 0.49 kg/m3
- mass density (303.15 K, m1 = 0.2): 1003.12 ± 0.49 kg/m3
- mass density (308.15 K, m1 = 0.05): 995.83 ± 0.5 kg/m3
- mass density (308.15 K, m1 = 0.1): 997.67 ± 0.5 kg/m3
- mass density (308.15 K, m1 = 0.15): 999.56 ± 0.5 kg/m3
- mass density (308.15 K, m1 = 0.2): 1001.46 ± 0.5 kg/m3
- mass density (313.15 K, m1 = 0.05): 993.99 ± 0.5 kg/m3
- mass density (313.15 K, m1 = 0.1): 995.82 ± 0.51 kg/m3
- mass density (313.15 K, m1 = 0.15): 997.69 ± 0.51 kg/m3
- mass density (313.15 K, m1 = 0.2): 999.59 ± 0.51 kg/m3
- mass density (318.15 K, m1 = 0.05): 992.01 ± 0.51 kg/m3
- mass density (318.15 K, m1 = 0.1): 993.83 ± 0.52 kg/m3
- mass density (318.15 K, m1 = 0.15): 995.69 ± 0.52 kg/m3
- mass density (318.15 K, m1 = 0.2): 997.6 ± 0.52 kg/m3
